Reference: patent publication US20200031848A1, “AR-V7 INHIBITORS” (Hoffmann-La Roche Inc., priority 2016, published 2020)

Experiments:
[1] = target: T1, AR transcriptional activity (Homo sapiens, UniProt P10275, T878A); experiment: eGFP cellular AR transcription assay; format: cell-based; details: for IC50: LNCaP eGFP cell line; for inhibition at 1 µM: read-out: eGFP % inhib. at 1 μM
T1 construct: The LNCaP eGFP cell line was stably transfected with an androgen-responsive probasin-derived promoter fused to an eGFP reporter; endogenous in cells; host or cells: LNCaP eGFP (LN-ARR2PB-eGFP) human prostate cancer cells
T1 sequence (P10275 1-920 T878A): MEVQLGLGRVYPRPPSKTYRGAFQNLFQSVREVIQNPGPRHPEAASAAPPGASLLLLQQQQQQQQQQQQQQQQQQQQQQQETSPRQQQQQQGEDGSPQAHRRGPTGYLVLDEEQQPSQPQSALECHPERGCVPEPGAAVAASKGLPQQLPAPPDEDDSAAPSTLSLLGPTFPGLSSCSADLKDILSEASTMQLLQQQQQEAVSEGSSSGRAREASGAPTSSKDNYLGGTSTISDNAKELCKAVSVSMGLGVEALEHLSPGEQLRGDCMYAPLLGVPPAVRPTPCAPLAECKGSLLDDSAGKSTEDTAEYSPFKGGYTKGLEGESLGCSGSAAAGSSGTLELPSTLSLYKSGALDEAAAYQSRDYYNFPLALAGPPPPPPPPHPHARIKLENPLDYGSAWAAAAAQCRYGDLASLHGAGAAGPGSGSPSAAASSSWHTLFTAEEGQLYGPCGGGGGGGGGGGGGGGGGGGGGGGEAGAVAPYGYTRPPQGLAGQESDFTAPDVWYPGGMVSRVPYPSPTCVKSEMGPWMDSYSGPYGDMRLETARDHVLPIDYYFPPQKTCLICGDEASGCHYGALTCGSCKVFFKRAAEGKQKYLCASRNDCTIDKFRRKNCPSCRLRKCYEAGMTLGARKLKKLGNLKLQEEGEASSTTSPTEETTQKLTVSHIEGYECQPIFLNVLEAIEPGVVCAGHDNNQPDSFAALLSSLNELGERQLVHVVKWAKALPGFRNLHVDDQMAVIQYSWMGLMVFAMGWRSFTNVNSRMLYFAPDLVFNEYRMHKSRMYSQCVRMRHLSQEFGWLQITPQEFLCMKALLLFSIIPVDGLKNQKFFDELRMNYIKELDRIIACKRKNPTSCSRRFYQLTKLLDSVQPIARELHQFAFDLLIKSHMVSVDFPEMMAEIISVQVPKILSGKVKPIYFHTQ
Description: The DNA-binding domain is an attractive target for inhibition of AR dimerization and/or DNA binding. In silico computational drug discovery methods were used to conduct a virtual screen of >3 million purchasable lead-like compounds from the ZINC database (Irwin, J. et al.^11) to identify potential DBD binders. The in silico methods included large-scale docking, in-site rescoring and consensus voting procedures. It will be understood by a person of skill that COOH and NR2 may include the corresponding ions, for example carboxylate ions and ammonium ions, respectively. Alternatively, where the ions are shown, a person of skill in the art will appreciate that the counter ion may also be present. Furthermore, it will be appreciated by a person of skill that other moieties may include the corresponding ions, and where the ions are shown, a person of skill in the art will appreciate that the counter ion may also be present. […] Where the % inhibition, eGFP IC50 or the PSA IC50 has no value given, this may be because no measurement was taken or the value was not calculated, in the case of the % inhibition. In vitro identification of AR inhibitors targeting AR DBD The selected compounds were assessed with a non-destructive eGFP assay that quantifies levels of AR transcriptional activity, were identified (table below).
(§1) 1. Cell Culture: LNCaP and PC3 human prostate cancer cells were obtained from American Type Culture Collection (ATCC, Manassas, Va.) and grown in RPMI 1640 medium supplemented with 5% fetal bovine serum (FBS) (Invitrogen). The LNCaP eGFP cell line was stably transfected with an androgen-responsive probasin-derived promoter fused to an eGFP reporter (LN-ARR2PB-eGFP) using a lentiviral approach, and were grown in phenol-red-free RPMI 1640 supplemented with 5% CSS. In-house developed MDV3100-resistant LNCaP cells were cultured in RPMI 1640 supplemented with 5% FBS and 10 μM MDV3100. All cells were maintained at 37° C. in 5% CO2.
2. eGFP cellular AR transcription assay: The AR transcriptional activity was assayed as previously described (Tavassoli, P., et al.^12).

[2] = test system: PSA levels secreted into the media; experiment: Prostate-specific antigen (PSA) assay; format: cell-based; details: Homo sapiens, 72 h; in parallel to the eGFP assay, same plates, 3 days
Protocol: as §1
3. Prostate-specific antigen (PSA) assay: The evaluation of PSA levels secreted into the media was performed in parallel to the eGFP assay using the same plates. After cells were incubated for 3 days, 150 μl of the media was taken from each well, and added to 150 μl of PBS. PSA levels were then evaluated using Cobas e 411 analyzer instrument (Roche Diagnostics) according to the manufacturer's instructions.

[3] = Human microsomal stability assay; details: for microsomal CLint at 2 μM: pH 7.4
Protocol: Microsomal incubations were carried out in 96-well plates in 5 aliquots of 40 μL each (one for each time point). […] Control incubations were performed replacing the NADPH-cofactor system with PBS. […] Incubations were performed in duplicates. Five time points over 40 minutes had been analyzed. The reactions were stopped by adding 12 volumes of 90% acetonitrile-water to incubation aliquots, followed by protein sedimentation by centrifuging at 5500 rpm for 5 minutes. Supernatants were analyzed using the HPLC system coupled with tandem mass spectrometer. The elimination constant (kel), half-life (t1/2) and intrinsic clearance (Clint) were determined in plot of […] versus time, using linear regression analysis: […]

Compound | microsomal CLint at 2 μM ([3]; human, microsomes) | inhibition at 1 µM [1] | IC50 [1] | IC50 [2] | other results
Brc1cn(-c2csc(N3[C@@H]4CCC[C@H]3COC4)n2)c(Br)n1 [Example 2, (1S,5R)-9-[4-(2,4-dibromoimidazol-1-yl)thiazol-2-yl]-3-oxa-9-azabicyclo[3.3.1]nonane] |  |  | 135 nM | 74 nM | 
Brc1cn(-c2csc(N3CCOC4(CCCC4)C3)n2)c(Br)n1 [Example 18, 9-[4-(2,4-dibromoimidazol-1-yl)thiazol-2-yl]-6-oxa-9-azaspiro[4.5]decane] | 100 µL/min/mg |  | 200 nM |  | "No cofactor" control: role of CYP450 in metabolism ([3]; NADPH-cofactor system replaced with PBS): not determined just by CYP450 activity; metabolic stability in human hepatic microsomal test system (in words) ([3]; human hepatic microsomes): low stability
CC1(C)CN(c2nc(-n3cc(Br)nc3Br)cs2)CCO1 [Example 1, 4-[4-(2,4-dibromoimidazol-1-yl)thiazol-2-yl]-2,2-dimethyl-morpholine] |  |  | 117 nM | 95 nM | 
Clc1c(Br)ncn1-c1csc(N2[C@@H]3CCC[C@H]2COC3)n1 [Example 9, (1R,5S)-9-[4-(4-bromo-5-chloro-imidazol-1-yl)thiazol-2-yl]-3-oxa-9-azabicyclo[3.3.1]nonane] |  |  | 746 nM | 784 nM | 
Brc1cn(-c2csc(N3[C@@H]4CC[C@H]3COC4)n2)c(Br)n1 [Example 10, (1R,5S)-8-[4-(2,4-dibromoimidazol-1-yl)thiazol-2-yl]-3-oxa-8-azabicyclo[3.2.1]octane] |  |  | 934 nM | 817 nM | 
Brc1cn(-c2csc(N3CCOC4(COC4)C3)n2)c(Br)n1 [Example 39, 8-[4-(2,4-dibromoimidazol-1-yl)thiazol-2-yl]-2,5-dioxa-8-azaspiro[3.5]nonane] | 18 µL/min/mg | 34% |  |  | 
Clc1c(Br)ncn1-c1csc(N2[C@@H]3CC[C@H]2COC3)n1 [Example 8, (1R,5S)-8-[4-(4-bromo-5-chloro-imidazol-1-yl)thiazol-2-yl]-3-oxa-8-azabicyclo[3.2.1]octane] |  |  | 717 nM | 717 nM | 
Brc1ncn(-c2csc(N3[C@@H]4CCC[C@H]3COC4)n2)c1Br [Example 4, (1S,5R)-9-[4-(4,5-dibromoimidazol-1-yl)thiazol-2-yl]-3-oxa-9-azabicyclo[3.3.1]nonane] |  |  | 196 nM | 6 nM | 
Brc1ncn(-c2csc(N3[C@@H]4CC[C@H]3COC4)n2)c1Br [Example 7, (1R,5S)-8-[4-(4,5-dibromoimidazol-1-yl)thiazol-2-yl]-3-oxa-8-azabicyclo[3.2.1]octane] |  |  | 458 nM | 385 nM | 
Clc1ncn(-c2csc(N3[C@@H]4CC[C@H]3COC4)n2)c1Br [Example 6, (1R,5S)-8-[4-(5-bromo-4-chloro-imidazol-1-yl)thiazol-2-yl]-3-oxa-8-azabicyclo[3.2.1]octane] |  |  | 404 nM | 377 nM | 
COc1nc(Br)cn1-c1csc(N2[C@@H]3CC[C@H]2COC3)n1 [Example 23, (1S,5R)-8-[4-(4-bromo-2-methoxy-imidazol-1-yl)thiazol-2-yl]-3-oxa-8-azabicyclo[3.2.1]octane] | 22 µL/min/mg |  | 270 nM |  | 
Clc1ncn(-c2csc(N3[C@@H]4CC[C@H]3COC4)n2)c1Cl [Example 19, (1R,5S)-8-[4-(4,5-dichloroimidazol-1-yl)thiazol-2-yl]-3-oxa-8-azabicyclo[3.2.1]octane] | 42 µL/min/mg |  | 320 nM |  | 

More lines, main results first:

microsomal CLint at 2 μM ([3]; human, microsomes) | inhibition at 1 µM [1] | Compound | IC50 [1] | IC50 [2] | other results
10 µL/min/mg | 17% | c1cn(-c2csc(N3CCOCC3)n2)cn1 [Example 55, 4-(4-imidazol-1-ylthiazol-2-yl)morpholine] |  |  | metabolic stability in human hepatic microsomal test system (in words) ([3]; human, microsomes): high metabolic stability
33 µL/min/mg | 12% | CCOC(=O)c1nc(Br)c(Br)n1-c1csc(N2CCOCC2)n1 [Example 56, ethyl 4,5-dibromo-1-(2-morpholinothiazol-4-yl)imidazole-2-carboxylate] |  |  | 
41 µL/min/mg |  | CC1CN(c2nc(-n3cc(Br)nc3Br)cs2)C(C)CO1 (centres unmarked) [Example 17, 4-[4-(2,4-dibromoimidazol-1-yl)thiazol-2-yl]-2,5-dimethyl-morpholine] | 190 nM |  | 
51 µL/min/mg |  | CCC1COCCN1c1nc(-n2cc(Br)nc2Br)cs1 (centres unmarked) [Example 15, 4-[4-(2,4-dibromoimidazol-1-yl)thiazol-2-yl]-3-ethyl-morpholine] | 130 nM |  | 
224 µL/min/mg | 28% | Cc1ncn(-c2csc(N3CCOCC3)n2)c1Br [Example 54, 4-[4-(5-bromo-4-methyl-imidazol-1-yl)thiazol-2-yl]morpholine] |  |  | 
44 µL/min/mg | 3% | Cc1nc(-c2ccccc2)cn1-c1csc(N2CCOCC2)n1 [Example 60, 4-[4-(2-methyl-4-phenyl-imidazol-1-yl)thiazol-2-yl]morpholine] |  |  | 
13 µL/min/mg |  | Clc1c(Br)ncn1-c1csc(N2C[C@H]3CC[C@@H](C2)O3)n1 [Example 24, (1R,5S)-3-[4-(4-bromo-5-chloro-imidazol-1-yl)thiazol-2-yl]-8-oxa-3-azabicyclo[3.2.1]octane] | 700 nM |  | metabolic stability in human hepatic microsomal test system (in words) ([3]; human, microsomes): high metabolic stability
23 µL/min/mg | 2% | N#Cc1cn(-c2csc(N3CCOCC3)n2)cn1 [Example 58, 1-(2-morpholinothiazol-4-yl)imidazole-4-carbonitrile] |  |  | 
6 µL/min/mg |  | Clc1ncn(-c2csc(N3C[C@H]4CC[C@@H](C3)O4)n2)c1Br [Example 21, (1R,5S)-3-[4-(5-bromo-4-chloro-imidazol-1-yl)thiazol-2-yl]-8-oxa-3-azabicyclo[3.2.1]octane] | 300 nM |  | metabolic stability in human hepatic microsomal test system (in words) ([3]; human, microsomes): high metabolic stability
72 µL/min/mg | 44% | Cc1c(Br)ncn1-c1csc(N2CCOCC2)n1 [Example 53, 4-[4-(4-bromo-5-methyl-imidazol-1-yl)thiazol-2-yl]morpholine] |  |  | 
52 µL/min/mg |  | CC1CN(c2nc(-n3cc(Br)nc3Br)cs2)CCO1 (centres unmarked) [Example 22, 4-[4-(2,4-dibromoimidazol-1-yl)thiazol-2-yl]-2-methyl-morpholine] | 400 nM |  | 
42 µL/min/mg | 35% | Brc1nccn1-c1csc(N2CCOCC2)n1 [Example 59, 4-[4-(2-bromoimidazol-1-yl)thiazol-2-yl]morpholine] |  |  | 
